Results as given in patent US8188303B2, “Anti-malarial compound isolated from Gomphostema niveum” (The Director General, Defence Research and Development …, priority 2005, dated 2012).
In brackets after ≈: the same amount, converted by molar mass.

Columns and labels:
[1] = test system: P. falciparum; experiment: In-vitro evaluation of anti-malarial activity (schizont maturation inhibition); assay type: cell-based, Plasmodium falciparum
Method: Two strains of chloroquine sensitive strain and one strain of P. falciparum isolated from patients from Jagadalpur region of India and maintained in vitro. The cultures are maintained as per the standard culture procedures.
The parasites are growth in O +ve human RBCs with the addition of RPMI 1640 culture media with 10% Human serum as supplement. The cells are incubated at 37° C. at 5% CO2 atmosphere and the parasitemia is checked after 24 hrs and media changed. When parasitemia exceeded 10% parasitized cells the culture is subcultured with the addition of fresh RBC. The parasite growth is synchronized by the sorbitol lysis method and synchronized ring stage parasites are used for testing. The in-vitro testing is done in 100 μI complete media per well with the addition of 10 μI of erythrocytes with 2% of ring stages of parasites. All the tests are run in duplicates with in 96 well flat bottomed tissue culture plate and double dilutions are made for each of the test compound with individual control wells only with the RPMI 1640 and human serum supplement. The growth of the parasites in the presence of each of the test compound, chloroquine and control wells are monitored by the examination of the giemsa stained blood smears made after 24 hrs of incubation. The counting is done for the presence of mature schizsonts among 200 asexual parasites and the average schizont maturation inhibition is calculated by the formula (1−Nt/Nc)×100 where in Nt and Nc represent the number of schizont present in the test and control respectively. The IC 50 and IC 90 values are calculated by using the commercial statistical package Sigmastat.
As controls IC50 chloroquine and artether were also determined.

[2] = test system: P. berghi; experiment: In-vivo anti-malarial activity; set-up: species or system Plasmodium berghi; conditions: result in words
[3] = schizont maturation inhibition, synchronized ring stage parasites in human RBCs, 24 hrs incubation

| IC50 [1, 3] | IC90 [1, 3] | IC50 ([1]; Plasmodium falciparum, 24 h) | IC90 ([1]; Plasmodium falciparum, 24 h) | SMILES | inhibitory activity against P. falciparum in-vitro ([1]; in-vitro, result in words) | inhibitory activity against P. berghi in-vivo [2] |
| --- | --- | --- | --- | --- | --- | --- |
| 8.23 µg/mL (≈ 24.8 µM) | 24.29 µg/mL (≈ 73.1 µM) |  |  | CC1=CC(=O)CC2C1(C)CCC(CO)C2(C)CCC1=CCOC1=O (stereo not drawn) [Gomphostenin, 3-[2-(2-Hydroxymethyl-1,4a,5-trimethyl-7-oxo-1,2,3,4,4a,7 8,8a-octahydronaphthalen-1-yl)-ethyl]-5H-furan-2-one] | significant inhibitory activity | significant inhibitory activity |
|  |  | 12.9 µg/mL (≈ 40.2 µM) | 23.7 µg/mL (≈ 74.1 µM) | CCN(CC)CCCC(C)Nc1ccnc2cc(Cl)ccc12 (stereo not drawn) [Chloroquine, reference compound] |  |  |
